Results taken from the supplement of paper PMC10307832.

How the values were obtained:
Assay in all cases: relative viability (nuclei count vs DMSO), 5 days (fraction); higher = more cells survive
Zebularine + OSI-027 = compound: O=c1ncccn1[C@@H]1O[C@H](CO)[C@@H](O)[C@H]1O [Zebularine] + COc1cccc2cc(-c3nc([C@H]4CC[C@H](C(=O)O)CC4)n4ncnc(N)c34)[nH]c12 [OSI-027] (partner 0.5 µM)
Procedure, shortened: (§1)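 Lung cancer cell lines were seeded in 1536-well plates and dosed by pin tool the next day, with either a single drug or a fixed anchor-drug dose combined with five library-drug doses (not always all listed) spaced in √10 steps. Five days later, one step fixed the cells and stained their nuclei (final 0.05% Triton X-100, 1% formaldehyde, 1 ug/ml Hoechst), and nuclei were counted on 4× images. Relative viability is the nuclei count in treated wells divided by the count in vehicle wells, and each value is the median of duplicate plates.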

BI-D1870 + Foretinib = compound: CC(C)CCN1c2nc(Nc3cc(F)c(O)c(F)c3)ncc2N(C)C(=O)C1C [BI-D1870] + COc1cc2c(Oc3ccc(NC(=O)C4(C(=O)Nc5ccc(F)cc5)CC4)cc3F)ccnc2cc1OCCCN1CCOCC1 [Foretinib] (partner 0.25 µM)
Procedure, shortened: as §1

Zebularine + AZD7762 = compound: O=c1ncccn1[C@@H]1O[C@H](CO)[C@@H](O)[C@H]1O [Zebularine] + NC(=O)Nc1cc(-c2cccc(F)c2)sc1C(=O)N[C@H]1CCCNC1 [AZD7762] (partner 0.2 µM)
Procedure, shortened: as §1

BI-D1870 + Lapatinib = compound: CC(C)CCN1c2nc(Nc3cc(F)c(O)c(F)c3)ncc2N(C)C(=O)C1C [BI-D1870] + CS(=O)(=O)CCNCc1ccc(-c2ccc3ncnc(Nc4ccc(OCc5cccc(F)c5)c(Cl)c4)c3c2)o1 [Lapatinib] (partner 2 µM)
Procedure, shortened: as §1

Cell Line	relative viability (Zebularine + OSI-027; first compound 1 µM)	relative viability (Zebularine + OSI-027; first compound 3.162 µM)	relative viability (Zebularine + OSI-027; first compound 10 µM)	relative viability (Zebularine + OSI-027; first compound 31.62 µM)	relative viability (Zebularine + OSI-027; first compound 100 µM)	relative viability (BI-D1870 + Foretinib; first compound 0.04 µM)	relative viability (BI-D1870 + Foretinib; first compound 0.1265 µM)	relative viability (BI-D1870 + Foretinib; first compound 0.4 µM)	relative viability (BI-D1870 + Foretinib; first compound 1.265 µM)	relative viability (BI-D1870 + Foretinib; first compound 4 µM)	relative viability (Zebularine + AZD7762; first compound 1 µM)	relative viability (Zebularine + AZD7762; first compound 3.162 µM)	relative viability (Zebularine + AZD7762; first compound 10 µM)	relative viability (Zebularine + AZD7762; first compound 31.62 µM)	relative viability (Zebularine + AZD7762; first compound 100 µM)	relative viability (BI-D1870 + Lapatinib; first compound 0.04 µM)	relative viability (BI-D1870 + Lapatinib; first compound 0.1265 µM)	relative viability (BI-D1870 + Lapatinib; first compound 0.4 µM)	relative viability (BI-D1870 + Lapatinib; first compound 1.265 µM)	relative viability (BI-D1870 + Lapatinib; first compound 4 µM)
201T	0.602	0.691	0.517	0.592	0.378	1.22	1.02	1	1.29	1.05	0.674	0.594	0.426	0.691	0.607	1.01	0.97	1.05	1.02	1.03
A549	–	–	–	–	–	1.08	0.958	1.01	0.963	0.747	–	–	–	–	–	1.16	0.875	1.06	0.908	0.992
A-427	0.51	0.403	0.347	0.344	0.268	1.14	0.895	0.991	1.11	1.13	0.753	0.628	0.487	0.501	0.287	1.05	0.981	0.957	1.21	1.09
ABC-1	0.522	0.413	0.401	0.367	0.443	1.16	0.984	1.1	1.42	0.913	0.816	–	0.554	0.538	0.54	1.19	0.952	1.05	1.28	1.02
BEN	0.544	0.29	0.279	0.24	0.272	0.654	0.609	0.76	1.16	0.77	0.808	0.587	0.504	0.496	0.296	0.713	0.728	0.784	0.749	0.621
CAL-12T	0.816	0.552	0.387	0.688	0.542	1.29	0.831	1.11	1.23	0.889	0.659	0.674	0.501	0.689	0.602	0.799	0.672	0.664	1.03	0.539
COR-L23	1.07	0.794	0.383	0.452	0.236	1.01	0.894	0.938	1.01	0.905	–	–	–	–	–	1.07	0.929	0.992	0.798	0.982
COR-L 105	0.763	0.642	0.566	0.697	0.684	1.29	1.12	1.1	1.47	1.12	–	–	–	–	–	0.387	0.363	0.355	0.407	0.335
Calu-6	–	–	–	–	–	0.929	0.789	0.87	0.774	0.561	–	–	–	–	–	1.07	0.977	1.09	0.931	0.868
ChaGo-K-1	0.66	0.593	0.331	0.239	0.23	1.01	0.85	0.857	1.04	0.956	0.916	0.862	0.427	0.337	0.249	–	–	–	–	–
EBC-1	–	–	–	–	–	0.103	0.119	0.105	0.136	0.0927	–	–	–	–	–	0.195	0.19	0.205	0.188	0.158
EKVX	0.679	0.644	0.617	0.749	0.695	1.3	0.593	0.619	0.935	0.371	0.846	0.816	–	0.593	0.772	0.236	0.18	0.195	0.223	0.2
EMC-BAC-2	0.406	0.366	0.341	0.387	0.368	1.07	0.875	0.918	1.09	1.02	1.19	1.2	0.792	1.2	1.15	0.823	0.887	0.815	0.951	0.899
HCC-44	0.627	0.462	0.435	0.398	0.364	–	–	–	–	–	1.11	1.03	1.15	1.14	1.01	1.05	1.04	1.02	0.961	1.1
IA-LM	–	–	–	–	–	1.24	1.07	1.32	1.03	0.977	–	–	–	–	–	0.972	0.906	0.862	0.614	0.213
LCLC-103H	0.474	0.434	0.321	0.414	0.462	0.842	0.662	0.777	0.866	0.566	0.8	0.798	0.579	0.802	0.689	–	–	–	–	–
